# Source: patent publication US20230114728A1 (Venatorx Pharmaceuticals, Inc., priority 2019, published 2023)
# pEC50: −log10 of the molar value.
# Experiments:
# [1] = target: T1, E. coli K12 PBP3 (Escherichia coli, UniProt P0AD68); assay: biochemical; format: binding
# T1 construct: made in house
# In short: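 Fluorescence polarization (ex 490/em 520 nm) competition of inhibitors against Bocillin-FL at 0.1 μM, read up to 60 min. Final PBP levels: E. coli PBP3 1.5 μM; A. baumannii PBP2 2.5 μM, PBP3 0.2 μM in Tris pH 8.0/NaCl/glycerol/Tween 20; N. gonorrhoeae PBP2 […] in Hepes pH 8.0/NaCl/glycerol. EC50 = concentration halving PBP-bound Bocillin-FL.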
# [2] = system: A. baumannii ATCC 19606; assay: Broth microdilution MIC in CAMHB; format: cell-based; settings: Acinetobacter baumannii, ATCC19606; MHB; read-out: Minimum Inhibitory Concentration, A. baumannii ATCC 19606
# In short: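 Per CLSI broth microdilution, colonies were grown 3-5 h at 37° C in cation-adjusted Mueller Hinton broth, then diluted to a starting inoculum of 2-8×10^5 CFU/mL against 2-fold serial compound dilutions. Plates were incubated 16-20 h at 37° C, and MIC was read visually as the lowest concentration with no growth.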
# [3] = system: E. coli 901C; assay: Broth microdilution MIC in CAMHB; format: cell-based; settings: Escherichia coli; E. coli 901C (hyper-permeable); MHB; read-out: Minimum Inhibitory Concentration, E. coli 901C
# In short: (§1)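 Colonies from cation-adjusted Mueller Hinton agar are grown in broth (3-5 h, 37° C), adjusted by OD600, and added at 2-8×10^5 CFU/mL to 2-fold compound dilutions. After 16-20 h at 37° C, the lowest concentration without growth is taken as MIC.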
# [4] = system: E. coli AG100; assay: Broth microdilution MIC in CAMHB; format: cell-based; settings: Escherichia coli; E. coli AG100 (wild-type parent); MHB; read-out: Minimum Inhibitory Concentration, E. coli AG100
# In short: as §1
# [5] = system: E. coli ATCC 25922; assay: Broth microdilution MIC in CAMHB; format: cell-based; settings: Escherichia coli, ATCC25922; E. coli ATCC 25922; MHB; read-out: Minimum Inhibitory Concentration, E. coli 25922
# In short: as §1
# [6] = system: E. coli D22; assay: Broth microdilution MIC in CAMHB; format: cell-based; settings: Escherichia coli; E. coli D22 (hyper-permeable); MHB; read-out: Minimum Inhibitory Concentration, E. coli D22
# In short: as §1
# [7] = system: K. pneumoniae 848844 producing SHV-11 and KPC-2; assay: Broth microdilution MIC in CAMHB; format: cell-based; settings: Klebsiella pneumoniae, read-out: Minimum Inhibitory Concentration, K. pneumoniae 848844
# In short: as §1
# [8] = system: K. pneumoniae UMM producing SHV-5 and KPC-2; assay: Broth microdilution MIC in CAMHB; format: cell-based; settings: Klebsiella pneumoniae, read-out: Minimum Inhibitory Concentration, K. pneumoniae UMM
# In short: as §1
# [9] = system: P. aeruginosa (ΔmexAB-oprM); assay: Broth microdilution MIC in CAMHB; format: cell-based; settings: Pseudomonas aeruginosa, read-out: Minimum Inhibitory Concentration, P. aeruginosa ΔmexAB-OprM
# In short: as §1
# T1 sequence (P0AD68 1-577): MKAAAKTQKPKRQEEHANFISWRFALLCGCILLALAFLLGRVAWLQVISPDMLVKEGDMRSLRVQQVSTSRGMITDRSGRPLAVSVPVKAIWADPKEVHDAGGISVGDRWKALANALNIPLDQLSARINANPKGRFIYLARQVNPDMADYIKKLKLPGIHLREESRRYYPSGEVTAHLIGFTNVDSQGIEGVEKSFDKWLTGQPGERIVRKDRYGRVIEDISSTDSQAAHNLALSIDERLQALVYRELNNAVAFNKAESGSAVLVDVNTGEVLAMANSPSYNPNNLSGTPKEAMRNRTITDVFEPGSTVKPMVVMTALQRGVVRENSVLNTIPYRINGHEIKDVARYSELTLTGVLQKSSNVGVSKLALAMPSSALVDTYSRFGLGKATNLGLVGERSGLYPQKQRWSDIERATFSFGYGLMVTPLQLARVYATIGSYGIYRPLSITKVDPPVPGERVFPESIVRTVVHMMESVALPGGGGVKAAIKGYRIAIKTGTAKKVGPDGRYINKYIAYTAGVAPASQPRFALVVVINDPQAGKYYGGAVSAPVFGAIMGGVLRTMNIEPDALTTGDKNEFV
Compound,pEC50 [1],MIC [2] [µg/mL],MIC [3] [µg/mL],MIC [4] [µg/mL],MIC [5] [µg/mL],MIC [6] [µg/mL],MIC [7] [µg/mL],MIC [8] [µg/mL],MIC [9] [µg/mL]
"CCN1CCN(C(=O)NC(C(=O)N[C@H]2Cc3cccc(C(=O)O)c3OB2O)c2cc(O)ccc2O)C(=O)C1=O (stereo partly drawn) [Example 77, (3R)-3-(2-(2,5-dihydroxyphenyl)-2-(4-ethyl-2,3-dioxopiperazine-1-carboxamido)acetamido)-2-hydroxy-3,4-dihydro-2H-benzo[e][1,2]oxaborinine-8-carboxylic acid]",3.30 to 4.52,> 128,8 to 16,> 128,> 128,8 to 16,> 128,> 128,> 128
"CCN1CCN(C(=O)NC(C(=O)N[C@H]2Cc3ccc(F)c(C(=O)O)c3OB2O)c2ccc(C(=O)O)cc2)C(=O)C1=O (stereo partly drawn) [Example 15, (3R)-3-(2-(4-carboxyphenyl)-2-(4-ethyl-2,3-dioxopiperazine-1-carboxamido)acetamido)-7-fluoro-2-hydroxy-3,4-dihydro-2H-benzo[e][1,2]oxaborinine-8-carboxylic acid]",> 4.52,> 128,0.5 to 1,> 128,> 128,8 to 16,> 128,> 128,8 to 16
"CCN1CCN(C(=O)NC(C(=O)N[C@H]2Cc3cccc(C(=O)O)c3OB2O)c2ccc(O)c(NS(N)(=O)=O)c2)C(=O)C1=O (stereo partly drawn) [Example 30, (3R)-3-(2-(4-ethyl-2,3-dioxopiperazine-1-carboxamido)-2-(4-hydroxy-3-(sulfamoylamino)phenyl)acetamido)-2-hydroxy-3,4-dihydro-2H-benzo[e][1,2]oxaborinine-8-carboxylic acid]",> 4.52,> 128,0.5 to 1,32 to 64,8 to 16,2 to 4,> 128,32 to 64,8 to 16
"NCCN1CCN(C(=O)N[C@@H](C(=O)N[C@H]2Cc3cccc(C(=O)O)c3OB2O)c2ccc(O)cc2Cl)C(=O)C1=O (single isomer, unassigned) [Example 86]",> 4.52,> 128,2 to 4,32 to 64,32 to 64,8 to 16,32 to 64,32 to 64,8 to 16
"CCN1CCN(C(=O)NC(C(=O)N[C@H]2Cc3cccc(C(=O)O)c3OB2O)c2ncc(C(=O)O)cc2F)C(=O)C1=O (stereo partly drawn) [Example 20, 6-(2-(((R)-8-carboxy-2-hydroxy-3,4-dihydro-2H-benzo[e][1,2]oxaborinin-3-yl)amino)-1-(4-ethyl-2,3-dioxopiperazine-1-carboxamido)-2-oxoethyl)-5-fluoronicotinic acid]",> 4.52,> 128,< 0.25,32 to 64,> 128,2 to 4,> 128,32 to 64,8 to 16
"CCN1CCN(C(=O)NC(C(=O)N[C@H]2Cc3cccc(C(=O)O)c3OB2O)c2cccc(O)c2)C(=O)C1=O (stereo partly drawn) [Example 68, (3R)-3-(2-(4-ethyl-2,3-dioxopiperazine-1-carboxamido)-2-(3-hydroxyphenyl)acetamido)-2-hydroxy-3,4-dihydro-2H-benzo[e][1,2]oxaborinine-8-carboxylic acid]",3.30 to 4.52,> 128,< 0.25,32 to 64,32 to 64,2 to 4,> 128,32 to 64,2 to 4
"NS(=O)(=O)NC(C(=O)N[C@H]1Cc2ccc(F)c(C(=O)O)c2OB1O)c1ncc(O)cc1F (stereo partly drawn) [Example 43, (3R)-7-fluoro-3-(2-(3-fluoro-5-hydroxypyridin-2-yl)-2-(sulfamoylamino)acetamido)-2-hydroxy-3,4-dihydro-2H-benzo[e][1,2]oxaborinine-8-carboxylic acid]",< 3.30,> 128,> 128,> 128,> 128,> 128,> 128,> 128,> 128
"CCN1CCN(C(=O)NC(C(=O)N[C@H]2Cc3cccc(C(=O)O)c3OB2O)c2ccc(O)c(NC(=O)c3ccc(O)c(O)c3Cl)c2)C(=O)C1=O (stereo partly drawn) [Example 74, (3R)-3-(2-(3-(2-chloro-3,4-dihydroxybenzamido)-4-hydroxyphenyl)-2-(4-ethyl-2,3-dioxopiperazine-1-carboxamido)acetamido)-2-hydroxy-3,4-dihydro-2H-benzo[e][1,2]oxaborinine-8-carboxylic acid]",> 4.52,> 128,< 0.25,8 to 16,> 128,2 to 4,> 128,> 128,0.5 to 1
